Source: patent publication EP0831826B1, “PHARMACEUTICAL COMPOSITION COMPRISING A PROTEINASE INHIBITOR AND A MONOGLYCERIDE” (F. HOFFMANN-LA ROCHE AG, priority 1995, dated 1996)
In brackets after ≈: the same amount, converted by molar mass. Where a name gives a salt, the structure may show the parent alone. Read-outs that look alike come from different tables or passages of the source.

Experiments:
[1] = physchem; details: hcl, pH 1.1, solubility

SMILES	solubility (hcl, pH 1.1) [mg/mL]	solubility (phosphate buffer, pH 5.4) [mg/mL]	solubility (water) [mg/mL]	solubility [1] [µg/mL]
CC(C)(C)NC(=O)[C@@H]1C[C@@H]2CCCC[C@@H]2CN1C[C@@H](O)[C@H](Cc1ccccc1)NC(=O)[C@H](CC(N)=O)NC(=O)c1ccc2ccccc2n1 [Compound A, N-tert.-butyl-decahydro-2-[2(R)-hydroxy-4-phenyl-3(S)-[[N-(2-quinolylcarbonyl)-L-asparaginyl]amino]butyl]-(4aS,8aS)-isoquinoline-3(S)-carboxamide]	0.05 (≈ 74.5 µM)	< 0.01	0.03 (≈ 44.7 µM)	
CC(C)(C)NC(=O)[C@@H]1C[C@@H]2CCCC[C@@H]2CN1C[C@@H](O)[C@H](Cc1ccccc1)NC(=O)[C@H](CC(N)=O)NC(=O)c1ccc2ccccc2n1 [Compound A-mesylate salt]		2.32	2.55	60
